From the supplement of paper PMC9151546
Counter-ions that a name gives are not always drawn. ± gives the standard deviation of the averaged measurements.

These molecules were tested on CHO-K1 (assay: benchmark concentration for 60% increase in hypodiploid frequency (BMC60); higher = less potent aneugen). Settings: S9 metabolic activation: with S9.
Experimental: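 Benchmark concentration modelling (PROAST, Hill/exponential model families) of the 19-concentration flow-cytometric micronucleus assay in CHO-K1 cells, with and without rat liver S9. Only non-cytotoxic and adequate (relative survival >=40%) concentrations were used. BMR was a 30% increase in %MN (BMC30) or a 60% increase in %hypodiploid (BMC60) over control.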
`Nc1cc(Cl)cc(C(=O)O)c1Cl` [Chloramben] showed a benchmark concentration of 9.7 µM. `CN(C)[C@@H]1C(=O)C(C(N)=O)=C(O)[C@@]2(O)C(=O)C3=C(O)c4c(O)cccc4[C@@](C)(O)[C@H]3[C@H](O)[C@@H]12` [Oxytetracycline hydrochloride] gave a benchmark concentration of 110 µM.

Same assay, conditions: S9 metabolic activation: without S9
For `CCc1cccc(C)c1N(C(=O)CCl)C(C)COC` (configuration not stated) [Metolachlor], the benchmark concentration was 180 µM. For `C/C=C\c1ccc(O)c(OC)c1` [Isoeugenol], the benchmark concentration was 72 µM. With `ClC1=C(Cl)C2(Cl)C3C4CC(C5OC45)C3C1(Cl)C2(Cl)Cl` (configuration not stated) [Endrin] the benchmark concentration was < 4.5 µM. `ClC1=C(Cl)C2(Cl)C3C(Cl)C(Cl)CC3C1(Cl)C2(Cl)Cl` (configuration not stated) [Chlordane] was tested, and the benchmark concentration was 54 µM. With `C[C@]12CCC(=O)C=C1CC[C@@H]1[C@@H]2CC[C@]2(C)C(=O)CC[C@@H]12` [4-Androstene-3,17-dione] the benchmark concentration was 34 µM. `COC(=O)CCCCC(=O)OC` [Dimethyl adipate] showed a benchmark concentration of 110 µM. Molecule `c1ccc2[nH]c(-c3cscn3)nc2c1` [Thiabendazole] has a benchmark concentration of 14.1 ± 7 µM. `CC(=O)c1ccccc1` [Acetophenone] gave a benchmark concentration of 50 µM. For `CCCCCCCCCC(=O)O` [Decanoic acid], the benchmark concentration was 30 µM. Work on `C1CC2OC2CC1C1CO1` (configuration not stated) [4-Vinyl-1-cyclohexene dioxide] yielded a benchmark concentration of 35 µM. `O=NO` [Sodium nitrite] was tested, and the benchmark concentration was 77 µM. Work on `Nc1ccccc1N` [1,2-Phenylenediamine] yielded a benchmark concentration of 47 µM. Molecule `O=[N+]([O-])c1ccc(Cl)cc1` [1-Chloro-4-nitrobenzene] has a benchmark concentration of 120 µM. For `c1ccc2cc3ccccc3cc2c1` [Anthracene], the benchmark concentration was 51 µM. `Clc1cc(Cl)c(Cl)cc1Cl` [1,2,4,5-Tetrachlorobenzene] was tested, and the benchmark concentration was 110 µM. `O=C(O)c1ccccc1` [Benzoic acid] was tested, and the benchmark concentration was 110 µM. `O=C(O)C(F)(F)C(F)(F)C(F)(F)C(F)(F)C(F)(F)C(F)(F)C(F)(F)F` [PFOA] showed a benchmark concentration of 6.7 µM. `CSC(C)(C)/C=N/O` [Aldicarb oxime] was tested, and the benchmark concentration was 40 µM. For `NC(=O)N1c2ccccc2C=Cc2ccccc21` [Carbamazepine], the benchmark concentration was 110 µM. `CN(C)C(=S)S` [Sodium dimethyldithiocarbamate] gave a benchmark concentration of 49 µM. Work on `CC(C)NCC(O)c1ccc(O)c(O)c1` (configuration not stated) [Isoproterenol hydrochloride] yielded a benchmark concentration of 110 µM. With `Cc1cccc(C)c1N` [2,6-Dimethylaniline] the benchmark concentration was 87 µM. Work on `CC(C)=CCC/C(C)=C/C=O` [3,7-Dimethyl-2,6-octadienal] yielded a benchmark concentration of 28 µM. `Cl[C@H]1[C@H](Cl)[C@@H](Cl)[C@H](Cl)[C@@H](Cl)[C@@H]1Cl` [beta-Hexachlorocyclohexane] showed a benchmark concentration of 32 µM. `O=C(Nc1ccc(Cl)cc1)Nc1ccc(Cl)c(Cl)c1` [Triclocarban] was tested, and the benchmark concentration was < 4.5 µM. `Cc1ccc(N(C)C)cc1` [N,N,4-Trimethylaniline] showed a benchmark concentration of 39 µM. Work on `Nc1cc(Cl)cc(C(=O)O)c1Cl` [Chloramben] yielded a benchmark concentration of 110 µM. For `Oc1c(Cl)c(Cl)c(Cl)c(Cl)c1Cl` [Pentachlorophenol], the benchmark concentration was 9 µM. In the case of `Oc1ccccc1Cl` [2-Chlorophenol], the benchmark concentration is reported as 97 µM. `Cc1cn(C2CC(N=[N+]=[N-])C(CO)O2)c(=O)[nH]c1=O` (configuration not stated) [3-Azido-3-deoxythymidine] gave a benchmark concentration of 72 µM. `Cc1ccccc1O` [o-Cresol] was tested, and the benchmark concentration was 130 µM. `Cc1ccc(N)c(N)c1` [3,4-Diaminotoluene] showed a benchmark concentration of 52 µM. Work on `Cc1ccc(Cl)cc1` [4-Chlorotoluene] yielded a benchmark concentration of 60 µM. `O=C=NCCCCCCN=C=O` [1,6-Diisocyanatohexane] showed a benchmark concentration of 100 µM. Molecule `Cc1ccc([N+](=O)[O-])cc1C` [1,2-Dimethyl-4-nitrobenzene] has a benchmark concentration of 89 µM. `CC1(C)C(=O)N(Br)C(=O)N1Br` [1,3-Dibromo-5,5-dimethylhydantoin] showed a benchmark concentration of 93 µM. With `CN(C)c1ccccc1` [N,N-Dimethylaniline] the benchmark concentration was 43 µM. `Oc1ccc(Cl)cc1Cc1ccccc1` [Clorophene] was tested, and the benchmark concentration was 34 µM. `COc1cc(-c2ccc(N)c(OC)c2)ccc1N` [3,3'-Dimethoxybenzidine dihydrochloride] showed a benchmark concentration of 7.6 µM. `Cc1occc(=O)c1O` [Maltol] showed a benchmark concentration of 100 µM. `CC(C)C(=O)OCC(C)(C)C(OC(=O)C(C)C)C(C)C` (configuration not stated) [2,2,4-Trimethyl-1,3-pentanediol diisobutyrate] gave a benchmark concentration of 190 µM. With `CCCCCCc1ccc(O)cc1O` [4-Hexylresorcinol] the benchmark concentration was < 4.5 µM. In the case of `c1ccc2n[nH]nc2c1` [1,2,3-Benzotriazole], the benchmark concentration is reported as 93 µM. In the case of `Cc1ccc(N)cc1O` [5-Amino-2-methylphenol], the benchmark concentration is reported as 5.3 µM. For `Nc1ccc(C(=O)O)cc1` [4-Aminobenzoic acid], the benchmark concentration was 110 µM. `OCCC(F)(F)C(F)(F)C(F)(F)C(F)(F)C(F)(F)C(F)(F)C(F)(F)C(F)(F)F` [1,1,2,2-Tetrahydroperfluoro-1-decanol] showed a benchmark concentration of 95 µM. `CC(C)COC(=O)c1ccccc1C(=O)OCC(C)C` [Diisobutyl phthalate] was tested, and the benchmark concentration was 32 µM. `Clc1cccc(Cl)c1` [1,3-Dichlorobenzene] was tested, and the benchmark concentration was 160 µM. `CCc1nc(N)nc(N)c1-c1ccc(Cl)cc1` [Pyrimethamine] showed a benchmark concentration of 49 µM. For `CC(C)(C)OOC(C)(C)CCC(C)(C)OOC(C)(C)C` [2,5-Dimethyl-2,5-di-(tert-butylperoxy)hexane], the benchmark concentration was 60 µM. Molecule `COC(=O)c1ccccc1N` [Methyl 2-aminobenzoate] has a benchmark concentration of 77 µM. With `CCCCCCCCCCO` [1-Decanol] the benchmark concentration was 120 µM. `COc1cc(C=O)ccc1O` [4-Hydroxy-3-methoxybenzaldehyde] gave a benchmark concentration of 53 µM. `OCCNCCO` [Diethanolamine] gave a benchmark concentration of 84 µM. `CC(C)C(=O)Nc1ccc([N+](=O)[O-])c(C(F)(F)F)c1` [Flutamide] showed a benchmark concentration of 17 µM. `CCCCC(CC)CO` (configuration not stated) [2-Ethyl-1-hexanol] was tested, and the benchmark concentration was 56 µM. Work on `ClC(Cl)c1ccccc1` [Benzal chloride] yielded a benchmark concentration of 91 µM. With `CCN(CC)c1ccccc1` [N,N-Diethylaniline] the benchmark concentration was 77 µM. Work on `Clc1cccc(Cl)c1Cl` [1,2,3-Trichlorobenzene] yielded a benchmark concentration of 32 µM. `OC(CCl)CCl` [1,3-Dichloro-2-propanol] was tested, and the benchmark concentration was 75 µM. `COCCOCCO` [Diethylene glycol monomethyl ether] showed a benchmark concentration of 90 µM. `Cc1c(C)c2c(c(C)c1O)CCC(C)(COc1ccc(CC3SC(=O)NC3=O)cc1)O2` (configuration not stated) [Troglitazone] gave a benchmark concentration of 14 µM. `OC(Cn1cncn1)(Cn1cncn1)c1ccc(F)cc1F` [Fluconazole] gave a benchmark concentration of 90 µM. In the case of `O=P(OCCCl)(OCCCl)OCCCl` [Tris(2-chloroethyl) phosphate], the benchmark concentration is reported as 150 µM. `Nc1ccc(Cc2ccc(N)cc2)cc1` [4,4'-Methylenedianiline] gave a benchmark concentration of 74 µM. Work on `CCN(CC)C(=O)SCc1ccc(Cl)cc1` [Thiobencarb] yielded a benchmark concentration of 113 ± 110 µM. Work on `Cc1c(C(=O)O)c(O)cc2c1C(=O)c1c(O)c([C@@H]3O[C@H](CO)[C@@H](O)[C@H](O)[C@H]3O)c(O)c(O)c1C2=O` [Carminic acid] yielded a benchmark concentration of 13 µM. `O=S(=O)(O)c1ccc(N=Nc2c(O)ccc3cc(S(=O)(=O)O)ccc23)cc1` [FD&C Yellow 6] was tested, and the benchmark concentration was 13 µM. `CC(C)=CCCC(C)CCO` (configuration not stated) [Citronellol] showed a benchmark concentration of 72 µM. `ClC(Cl)(Cl)c1ccccc1` [Benzotrichloride] showed a benchmark concentration of 45 µM.
